Measurements taken from BindingDB's records for patent US20240208953 (Novartis, 2024).

Molecular target: Potassium voltage-gated channel subfamily H member 2 (Homo sapiens, UniProt Q12809)
Experiment: hERG Qpatch Assay
Description: hERG currents were recorded using the Qpatch automated patch clamp systems (Sophion Bioscience Inc., North Brunswick, NJ) in the whole (single) cell configuration. hERG expressing CHO-K1 cells were harvested with Detachin (Genlantis) and stored in the modified serum-free SFM-2 media (Life Technologies) at room temperature. The extracellular solution contained (in mM) NaCl (145), KCl (4), MgCl2 (1), CaCl2 (2), and HEPES (10), pH 7.4, with NaOH. The intracellular solution contained KCl (135), MgCl2 (1.75), CaCl2 (5.4), EGTA (10), K2-ATP (4), and HEPES (10), pH 7.2, with KOH. After whole cell configuration was achieved, the cell was held at +-90 mV, and a 0.1 s pulse to +-50 mV was delivered to measure the leaking current, which was subtracted from the tail current online. Then the cell was depolarized to +20 mV for 4 s (prepulse), followed by a 4 s test pulse to +-50 mV to reveal the hERG tail current. To monitor changes in the current amplitude, this voltage protocol was repeatedly applied every 20 s. Test compounds were first diluted in DMSO for six dose-response experiments and then dissolved in the extracellular solution using Freedom EVO liquid handling robotic system (Tecan, M nnedorf, Switzerland). The final DMSO concentration in samples was 0.3% v/v. Amitriptyline (Sigma) was tested as a positive control.

Chain of Potassium voltage-gated channel subfamily H member 2 (Q12809 whole entry): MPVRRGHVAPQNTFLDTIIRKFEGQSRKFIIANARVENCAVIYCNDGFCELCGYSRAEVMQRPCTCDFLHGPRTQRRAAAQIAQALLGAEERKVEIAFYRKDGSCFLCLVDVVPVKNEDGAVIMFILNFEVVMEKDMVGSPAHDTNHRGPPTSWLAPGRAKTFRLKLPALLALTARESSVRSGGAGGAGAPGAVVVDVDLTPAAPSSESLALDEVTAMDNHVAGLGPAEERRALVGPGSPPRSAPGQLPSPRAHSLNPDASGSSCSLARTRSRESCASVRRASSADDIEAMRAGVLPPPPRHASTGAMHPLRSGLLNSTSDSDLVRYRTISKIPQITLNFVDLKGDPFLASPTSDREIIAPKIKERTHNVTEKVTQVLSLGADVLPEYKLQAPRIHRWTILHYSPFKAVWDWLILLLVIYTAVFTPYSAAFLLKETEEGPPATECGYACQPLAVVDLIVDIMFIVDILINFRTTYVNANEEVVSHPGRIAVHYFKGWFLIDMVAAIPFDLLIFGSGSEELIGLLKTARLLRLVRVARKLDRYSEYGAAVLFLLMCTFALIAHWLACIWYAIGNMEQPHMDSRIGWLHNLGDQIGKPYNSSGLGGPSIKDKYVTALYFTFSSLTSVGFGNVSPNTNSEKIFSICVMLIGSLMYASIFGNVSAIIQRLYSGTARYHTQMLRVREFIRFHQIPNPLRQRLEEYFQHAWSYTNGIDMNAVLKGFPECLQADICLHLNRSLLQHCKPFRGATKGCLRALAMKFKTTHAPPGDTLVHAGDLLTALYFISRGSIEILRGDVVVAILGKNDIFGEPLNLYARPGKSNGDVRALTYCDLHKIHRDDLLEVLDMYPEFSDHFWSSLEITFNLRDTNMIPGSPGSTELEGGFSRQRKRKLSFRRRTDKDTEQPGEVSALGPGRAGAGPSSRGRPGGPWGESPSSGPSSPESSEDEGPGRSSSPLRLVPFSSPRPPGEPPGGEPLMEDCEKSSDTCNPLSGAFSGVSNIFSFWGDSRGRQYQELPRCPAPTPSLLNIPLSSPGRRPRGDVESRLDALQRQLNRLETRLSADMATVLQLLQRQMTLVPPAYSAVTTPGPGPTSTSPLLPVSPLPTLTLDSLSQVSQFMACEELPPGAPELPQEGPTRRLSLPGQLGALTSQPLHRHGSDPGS

SMILES	IC50
O=C1Nc2c(F)cc([C@@H](O)CN3C[C@H]4C[C@H](Oc5ccccc5)C[C@@]4(O)C3)cc2CO1 [US20240208953, Example 28A]	2.4 µM
O=C1CCc2cc([C@H](O)CN3C[C@H]4C[C@H](Oc5ccccc5F)C[C@@]4(O)C3)cc(F)c2N1 [US20240208953, Example 29B]	12.5 µM
